Measured values as given in patent US20240277663A1, “PHARMACEUTICAL KITS AND USES THEREOF FOR TREATING COLORECTAL CANCER” (priority 2023, published 2024).
Read-outs that look alike come from different tables or passages of the source. Marks after values point to notes of the source that are not given here.

Columns and labels:
[1] = test system: CT26 allograft tumor (MSS subtype colorectal carcinoma); experiment: CT26 subcutaneous tumor model, HDAC inhibitors with or without RMP1-14; conditions: for response in the mice on the growth of tumor (individual tumor volumes): compared to vehicle group or to other combinations, ABT-301 100 mg/kg, vorinostat 100 mg/kg, citarinostat 50 mg/kg, RMP1-14 200 μg
Method: MC-38 cells (purchased from Kerafast, Inc.), derived from C57BL/6 murine colon adenocarcinoma cells typically classified as microsatellite instable, were maintained in DMEM with 10% fetal bovine serum, 100 U/mL penicillin, 100 μg/mL streptomycin, 10 mM HEPES, and 1× nonessential amino acid. All the cells were maintained in a humidified atmosphere having 5% CO2 at 37° C.
(§1) Female BALB/c mice (BALB/cByJNarl) aged 5-7 weeks (for CT26 subcutaneous tumor model), and female C57BL/6 mice (C57BL/6JNarl) aged 5-7 weeks (for MC-38 subcutaneous tumor model), were housed in standard cages within the animal facility at the Industrial Technology Research Institute (ITRI). A one-week acclimatization period preceded the commencement of the study, with the health of the mice monitored daily. Animals were kept in rooms at 22-26° C. with 40-70% humidity, positive pressure, 60% air recirculation, ventilation rate 15-20 changes per hour, and a controlled light-dark cycle (12-12 hours).
(§2) CT26 cells (2×10^5) were suspended in 100 μl of PBS and subcutaneously inoculated into the right flank of female BALB/c mice. Tumors were measured with calipers, and tumor size was calculated as follows: tumor volume (V)=(L×S^2)/2 (L, longest diameter, mm; S, shortest diameter, mm). Tumor size and body weight of mice were monitored and recorded twice to thrice per week. The antitumor activities of treatments were expressed as percentages of tumor growth inhibition (% TGI), as calculated using the following formula: [1−(final tumor volume−initial tumor volume for treated group)/(final tumor volume−initial tumor volume for vehicle group)]×100. Body weight of each mouse was also compared to that on the first day of treatment (Day 0) and expressed as a percentage of Day 0 value.
When mean tumor volume reached about 80-100 mm^3, treatments were initiated and the day of treatment initiation was designated as Day 0. […] Treatments were administered for indicated period (31 days) or until humane endpoints. Eight or nine mice were used in each group. […] RMP1-14 was prepared with PBS.

colorectal cancer tumor = experiment: Another batch: HDAC inhibitors (PCI-34051, elevenostat, ABT-301) with or without RMP1-14 in tumor-bearing mice; assay type: in vivo, mouse; conditions: another batch of experiments, data not shown; compared to vehicle group or to other combinations
HDAC7 = target: T1, HDAC7 (Homo sapiens, UniProt Q8WUI4); experiment: HDAC enzymatic activity assay (fluorogenic, Reaction Biology)
T1 sequence (Q8WUI4 1-952): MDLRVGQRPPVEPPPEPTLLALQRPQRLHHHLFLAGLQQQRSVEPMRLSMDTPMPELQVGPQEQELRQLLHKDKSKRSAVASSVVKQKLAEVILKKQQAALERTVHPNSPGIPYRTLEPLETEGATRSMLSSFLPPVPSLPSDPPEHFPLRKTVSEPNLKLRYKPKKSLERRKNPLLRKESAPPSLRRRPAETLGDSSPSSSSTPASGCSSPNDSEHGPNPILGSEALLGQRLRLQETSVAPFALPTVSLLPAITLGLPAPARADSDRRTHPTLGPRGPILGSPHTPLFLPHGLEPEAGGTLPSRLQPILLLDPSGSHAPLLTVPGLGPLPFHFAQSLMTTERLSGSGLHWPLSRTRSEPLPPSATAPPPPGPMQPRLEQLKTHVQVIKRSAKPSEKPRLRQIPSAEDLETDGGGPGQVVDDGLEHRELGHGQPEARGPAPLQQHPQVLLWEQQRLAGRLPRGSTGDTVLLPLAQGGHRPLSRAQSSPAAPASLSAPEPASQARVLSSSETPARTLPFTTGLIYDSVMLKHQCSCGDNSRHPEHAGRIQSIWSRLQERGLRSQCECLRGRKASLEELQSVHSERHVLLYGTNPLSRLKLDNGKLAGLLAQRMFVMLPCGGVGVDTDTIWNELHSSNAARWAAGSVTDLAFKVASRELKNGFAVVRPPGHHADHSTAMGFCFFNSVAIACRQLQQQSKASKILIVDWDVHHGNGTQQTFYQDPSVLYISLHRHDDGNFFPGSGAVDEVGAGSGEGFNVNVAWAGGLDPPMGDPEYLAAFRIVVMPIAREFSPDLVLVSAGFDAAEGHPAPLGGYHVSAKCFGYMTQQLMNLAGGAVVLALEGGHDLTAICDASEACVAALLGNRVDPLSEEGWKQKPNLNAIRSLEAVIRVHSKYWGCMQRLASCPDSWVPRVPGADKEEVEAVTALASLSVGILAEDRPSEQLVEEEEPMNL

HDAC9 = HDAC9 (Homo sapiens, UniProt Q9UKV0); experiment: as above
HDAC10 = target: T2, HDAC10 (Homo sapiens, UniProt Q969S8); experiment: as above
T2 sequence (Q969S8 1-669): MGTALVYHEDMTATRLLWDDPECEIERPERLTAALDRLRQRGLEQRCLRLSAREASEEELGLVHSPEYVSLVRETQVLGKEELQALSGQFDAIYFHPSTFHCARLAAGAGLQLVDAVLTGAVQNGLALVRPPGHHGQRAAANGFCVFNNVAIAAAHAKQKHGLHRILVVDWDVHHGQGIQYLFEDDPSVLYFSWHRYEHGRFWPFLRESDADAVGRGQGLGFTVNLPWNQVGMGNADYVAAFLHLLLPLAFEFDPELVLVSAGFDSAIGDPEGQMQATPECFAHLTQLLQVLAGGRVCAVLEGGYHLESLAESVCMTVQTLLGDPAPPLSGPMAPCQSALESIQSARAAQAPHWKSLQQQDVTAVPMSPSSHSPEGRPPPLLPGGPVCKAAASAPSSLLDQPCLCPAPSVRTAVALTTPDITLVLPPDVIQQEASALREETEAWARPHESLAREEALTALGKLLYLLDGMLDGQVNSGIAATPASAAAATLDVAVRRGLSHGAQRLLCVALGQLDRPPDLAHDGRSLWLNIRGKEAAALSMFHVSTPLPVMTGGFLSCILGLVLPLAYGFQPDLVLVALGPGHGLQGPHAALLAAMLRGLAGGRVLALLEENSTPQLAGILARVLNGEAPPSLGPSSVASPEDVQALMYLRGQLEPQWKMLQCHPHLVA

HDAC11 = target: T3, HDAC11 (Homo sapiens, UniProt Q96DB2); experiment: as above
T3 sequence (Q96DB2 1-347): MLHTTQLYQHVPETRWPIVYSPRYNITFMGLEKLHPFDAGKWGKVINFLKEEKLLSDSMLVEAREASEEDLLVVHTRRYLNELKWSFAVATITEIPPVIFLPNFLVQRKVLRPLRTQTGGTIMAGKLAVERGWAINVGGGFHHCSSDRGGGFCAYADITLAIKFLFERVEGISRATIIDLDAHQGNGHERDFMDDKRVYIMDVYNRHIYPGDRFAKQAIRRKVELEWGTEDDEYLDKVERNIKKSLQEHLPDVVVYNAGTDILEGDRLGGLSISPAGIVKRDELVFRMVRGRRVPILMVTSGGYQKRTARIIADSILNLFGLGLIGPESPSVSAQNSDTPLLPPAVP

[2] = test system: CT26 allograft tumor (MSS subtype colorectal carcinoma); experiment: CT26 subcutaneous tumor model, multiple doses of ABT-301 with or without avelumab; assay type: in vivo, mouse
Method: Treatments were administered for indicated period (24 days) or until humane endpoints. Ten mice were used in each group. […] Avelumab was prepared with PBS.

[3] = test system: CT26 allograft tumor (MSS subtype colorectal carcinoma)
Method: As described herein, tumor responses were evaluated using Response Evaluation Criteria in Solid Tumors (RECIST) criteria. Complete response (CR) was defined as complete disappearance of measurable or evaluable tumor lesions; partial response (PR) was defined as reduction of the size of measurable tumor lesions by at least 30% (≥30%) compared to the original tumor size; stable disease (SD) was defined as reduction of the size of measurable tumor lesions by less than 30% (<30%) or enlargement of the size of measurable tumor lesions by less than 20% (<20%) compared to the original tumor size; and progressive disease (PD) was defined as growth of the tumor by more than 30% (>30%) in the tumor volume compared to the original tumor size or development of new lesions.
All the cells were maintained in a humidified atmosphere having 5% CO2 at 37° C.
as §1, §2
The administration of treatments commenced five days following the inoculation of CT26 cells, with the day of treatment initiation designated as Day 0. When mean tumor volume reached 50-100 mm^3, the mice were assigned into four groups through S-type grouping according to tumor size. […] Eight mice were used in each group. Treatments were administered for 43 days. […] Avelumab was prepared with PBS.

[4] = test system: MC-38 allograft tumor (MSI-H subtype colorectal carcinoma)
Method: As described herein, tumor responses were evaluated using Response Evaluation Criteria in Solid Tumors (RECIST) criteria. Complete response (CR) was defined as complete disappearance of measurable or evaluable tumor lesions; partial response (PR) was defined as reduction of the size of measurable tumor lesions by at least 30% (≥30%) compared to the original tumor size; stable disease (SD) was defined as reduction of the size of measurable tumor lesions by less than 30% (<30%) or enlargement of the size of measurable tumor lesions by less than 20% (<20%) compared to the original tumor size; and progressive disease (PD) was defined as growth of the tumor by more than 30% (>30%) in the tumor volume compared to the original tumor size or development of new lesions. […]
Female BALB/c mice (BALB/cByJNarl) aged 5-7 weeks (for CT26 subcutaneous tumor model), and female C57BL/6 mice (C57BL/6JNarl) aged 5-7 weeks (for MC-38 subcutaneous tumor model), were housed in standard cages within the animal facility at the Industrial Technology Research Institute (ITRI). A one-week acclimatization period preceded the commencement of the study, with the health of the mice monitored daily. […]
MC-38 cells (2×10^5) were suspended in 100 μl of PBS and subcutaneously inoculated into the right flank of female C57BL/6 mice. Tumors were measured with calipers, and tumor size was calculated as follows: tumor volume (V)=(LxS^2)/2 (L, longest diameter, mm; S, shortest diameter, mm). Tumor size and body weight of mice were monitored and recorded twice to thrice per week. The antitumor activities of treatments were expressed as percentages of tumor growth inhibition (% TGI), as calculated using the following formula: [1−(final tumor volume−initial tumor volume for treated group)/(final tumor volume−initial tumor volume for vehicle group)]×100. Body weight of each mouse was also compared to that on the first day of treatment (Day 0) and expressed as a percentage of Day 0 value. […]

[5] = Day 28 after treatments, ABT-301 100 mg/kg PO, avelumab 100 μg IP, means ± SEM

Chain of HDAC9 (Q9UKV0 whole entry): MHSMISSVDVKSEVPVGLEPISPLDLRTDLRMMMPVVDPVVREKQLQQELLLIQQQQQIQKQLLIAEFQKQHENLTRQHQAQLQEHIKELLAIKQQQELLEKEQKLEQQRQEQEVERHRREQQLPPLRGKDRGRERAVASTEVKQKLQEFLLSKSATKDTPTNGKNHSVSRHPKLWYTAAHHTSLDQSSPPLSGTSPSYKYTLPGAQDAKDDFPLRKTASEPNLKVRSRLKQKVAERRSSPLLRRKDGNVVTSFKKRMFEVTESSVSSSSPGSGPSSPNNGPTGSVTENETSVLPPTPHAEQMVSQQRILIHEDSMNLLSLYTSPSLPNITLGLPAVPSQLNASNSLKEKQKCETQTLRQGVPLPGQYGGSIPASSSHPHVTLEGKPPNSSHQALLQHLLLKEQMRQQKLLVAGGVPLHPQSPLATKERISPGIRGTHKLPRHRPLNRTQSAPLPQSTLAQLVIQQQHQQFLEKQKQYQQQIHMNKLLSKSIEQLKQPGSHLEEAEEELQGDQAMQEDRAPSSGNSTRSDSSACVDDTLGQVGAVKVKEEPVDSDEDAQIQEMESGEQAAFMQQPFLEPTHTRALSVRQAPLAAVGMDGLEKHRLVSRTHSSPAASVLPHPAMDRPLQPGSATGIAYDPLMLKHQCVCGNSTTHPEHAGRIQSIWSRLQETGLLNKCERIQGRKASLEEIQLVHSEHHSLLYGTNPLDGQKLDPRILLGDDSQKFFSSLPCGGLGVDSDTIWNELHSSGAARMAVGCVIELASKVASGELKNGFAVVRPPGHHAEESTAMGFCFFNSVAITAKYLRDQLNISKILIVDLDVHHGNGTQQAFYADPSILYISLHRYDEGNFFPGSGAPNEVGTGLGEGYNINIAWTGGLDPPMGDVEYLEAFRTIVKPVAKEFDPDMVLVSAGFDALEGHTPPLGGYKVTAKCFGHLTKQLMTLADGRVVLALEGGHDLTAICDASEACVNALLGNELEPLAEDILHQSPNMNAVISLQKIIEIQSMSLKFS

Q: `O=C(CCCCCCNC(=O)c1cnc(N(c2ccccc2)c2ccccc2Cl)nc1)NO` [Citarinostat] was tested. Which “TGI (tumor growth inhibition)” value ([1]; Day 22 after treatments, ABT-301 100 mg/kg PO, vorinostat 100 mg/kg PO, citarinostat 50 mg/kg IP, RMP1-14 200 μg IP) did it give?
A: 38%

Q: And the “response in the mice on the growth of tumor (individual tumor volumes)” value [1]?
A: did not elicit a visible response

Q: How did the “response in the mice on the growth of tumor” value (colorectal cancer tumor) turn out when `COc1ccc(Cn2ccc3ccc(C(=O)NO)cc32)cc1` [PCI-34051] was run?
A: did not elicit a visible response

Q: For `Nc1cc(F)ccc1NC(=O)c1ccc(CNC(=O)/C=C/c2cccnc2)cc1` [Tucidinostat, reference compound], which IC50 (HDAC7) is on record?
A: > 3 µM

Q: What about the IC50 (HDAC9) of the same compound?
A: > 3 µM

Q: And the IC50 (HDAC10)?
A: > 3 µM

Q: What about the IC50 (HDAC11) of the same compound?
A: > 3 µM

Q: How did the “response in the mice on the growth of tumor (individual tumor volumes)” value [1] turn out when `O=C(CCCCCCC(=O)Nc1ccccc1)NO` [Vorinostat] was run?
A: did not elicit a visible response

Q: `COc1ccccc1NC(=O)NCc1ccc(C(=O)NO)cc1` [elevenostat] was tested. Which “response in the mice on the growth of tumor” value (colorectal cancer tumor) did it give?
A: did not elicit a visible response

Q: “Avelumab: an anti-PD-L1 antibody [reference compound]” was tested. Which Tumor size ([2]; Day 24 after treatments, avelumab 200 μg alone, means ± SEM) did it give?
A: 31.79 ± 26.66** mm^3

Q: And the “number of mice exhibiting complete response (CR)” value ([2]; avelumab 200 μg IP BIW alone, out of 10 mice)?
A: 7

Q: What about the “complete response (CR) rate” value ([3]; CT26-bearing BALB/c mice, n=8/group, ABT-301 100 mg/kg PO QD, avelumab 100 μg IP BIW) of the same compound?
A: 1/8

Q: What about the Median survival ([3]; CT26 allograft tumor mice, over the entire study, ABT-301 100 mg/kg PO QD, avelumab 100 μg IP BIW) of the same compound?
A: 28 days

Q: And the “TGI (tumor growth inhibition)” value [3, 5]?
A: 58.51 ± 14.14%

Q: And the Tumor size [3, 5]?
A: 559.63 ± 156.94 mm^3

Q: What about the Tumor size ([4]; Day 25 after treatments, ABT-301 100 mg/kg PO, avelumab 200 μg IP, RMP1-14 200 μg IP, means ± SEM) of the same compound?
A: 529.91 ± 329.24 mm^3

Q: And the “complete response (CR) rate” value ([4]; MC-38-bearing C57BL/6 mice, n=8/group, ABT-301 100 mg/kg PO QD, avelumab 200 μg IP BIW, RMP1-14 200 μg IP BIW)?
A: 4/8

Q: And the Median survival ([4]; MC-38 allograft tumor mice, over the entire study, ABT-301 100 mg/kg PO QD, avelumab or RMP1-14 200 μg IP BIW)?
A: 68 days
